Test results as given in patent US20160143929A1, “ADMINISTRATION OF GL[…] THE TREATMENT OF CANCER” (Threshold Pharmaceuticals, Inc., priority 2008, published 2016).

Assays:
[1] = Phase I study: pharmacokinetics of Glufosfamide by 6 h intravenous infusion; conditions: over the dose range studied, 3200-6000 mg/m^2
Excerpt: Patients were ineligible if they had symptomatic brain metastasis; other nonmalignant systemic disease; an active, uncontrolled infection; preexisting nephrotoxicity of grade 3 or 4 (NCI Common Toxicity Criteria—NCI-CTC) resulting from previous therapy; or infection with HIV, HBV, or HCV. They were also ineligible if they were pregnant or nursing, or if they required steroid therapy.
This open-label, dose-escalation Phase I study was based on intravenous infusion of the drug in three cohorts of Japanese subjects with malignant solid tumors. Glufosfamide was administered intravenously over 6 h in a total volume of 1000 mL of normal saline at doses of 3200, 4500, and 6000 mg/m^2. One-quarter of the dose was administered during the first 30 min at a rate of 500 mL/h, with the remainder of the dose being administered over the subsequent 330 min at a rate of 136 mL/h. Glufosfamide was administered on day 1 once every 3 weeks. Antiemetic premedication was not mandatory in the protocol. Granulocyte colony-stimulating factor (G-CSF) was administered for febrile neutropenia, sepsis with neutropenia, or recurrent neutropenia of grade 4.
Pharmacokinetic sampling was performed for the first and second cycles.

[2] = Phase I dose-escalation study: safety, DLT, MTD and RD; format: in vivo, human
Procedure: (§1) A medical history was obtained from each patient, and physical examinations and routine laboratory evaluations were performed before treatment initiation and weekly thereafter, Chest and other relevant x-rays were obtained during screening and after alternate cycles of treatment. Adverse events were monitored and recorded throughout the study and were graded according to NCI-CTC, version 3.0. The tumor response was assessed for measurable target lesions according to Response Evaluation Criteria in Solid Tumors (RECIST).
(§2) Antiemetic premedication was not mandatory in the protocol.
The starting dose of Glufosfamide was 3200, which was increased to 4500 and then to 6000 in subsequent cohorts of at least three patients. The following adverse events during cycle 1 were defined as DLTs (dose-limiting toxicities): neutropenia of grade 4 (ANC of <500/uL) for >7 days; febrile neutropenia (fever of >38 degrees C. with an ANC of <1000/uL); thrombocytopenia (platelet count of <25,000/uL); nausea or vomiting of grade > (or equal to) 3 despite maximal antiemetic therapy; and any other nonhematologic toxicity of grade > (or equal to) 3 considered drug-related. If any patient experienced a DLT during the first cycle, three additional patients were treated at the same dose. Patients who experienced a DLT could continue Glufosfamide therapy at the preceding dose level. Treatment in subsequent courses was reinitiated only after hematologic recovery (ANC of > (or equal to) 1500/uL, platelet count of > (or equal to) 100,000/uL) and resolution of all other toxicities to grade < (or equal to) 1 or baseline intensity. The MTD (maximum tolerated dose) was defined as the dose at which two or more patients experienced a DLT in the first cycle. The RD (recommended dose) was defined as the dose level immediately below the MTD. In accordance with the methods of the invention, both the RD and MTD (and intermediate doses) can be administered to patients, with the RD preferred for Japanese and other patients of Asian origin and the MID preferred for other patients.

solid tumors = test: Phase I study: tumor response by RECIST; format: in vivo, human
Procedure: as §1, §2

pancreatic cancer = pancreatic cancer patients relapsed after or not responding to gemcitabine; cited from earlier work
[3] = Caucasian patients, intravenous infusion; cited from earlier work

Row | Compound | dose linearity of pharmacokinetics [1] | patients with neutropenia of grade 4 ([2]; 4500 mg/m^2, cycle 2, without infection, short-lived, 13 patients) | patients with grade 4 anemia requiring red blood cell transfusion ([2]; 4500 mg/m^2, cycle 3) | patients with DLTs ([2]; 6000 mg/m^2, cycle 1, grade 3 metabolic acidosis, hypophosphatemia, hypokalemia) | MTD (maximum tolerated dose) ([2]; Japanese patients, 6 h iv infusion day 1 every 3 weeks, dose at which two or more patients had a DLT in cycle 1) [mg/m^2] | RD (recommended dose) ([2]; Japanese patients, 6 h iv infusion every 3 weeks, dose level immediately below MTD) [mg/m^2] | predominant nonhematologic toxicities ([2]; all dose levels, generally transient and reversible) | DLTs ([2]; two lowest doses (3200 and 4500 mg/m^2), cycle 1) | partial response (solid tumors; among thirteen evaluable patients, advanced gall bladder cancer, 4500 mg/m^2, after two cycles) | subjects showing stabilization of disease (solid tumors; among thirteen evaluable patients, colorectal (4), gastric, thymic cancer, thymoma, non-small cell lung cancer) | patients with evidence of antitumor activity (solid tumors; among thirteen patients evaluable for response) | duration of partial response (solid tumors; person, advanced gall bladder cancer, 4500 mg/m^2, two cycles) | Phase III trial outcome (pancreatic cancer) | anticancer activity in Phase III trial (pancreatic cancer) | dose that is well tolerated [3] [mg/m^2]
1 | O=P(NCCCl)(NCCCl)O[C@@H]1O[C@H](CO)[C@@H](O)[C@H](O)[C@H]1O [Glufosfamide, beta-D-glucosyl-isophosphoramide mustard] | linear pharmacokinetics | only one patient | one patient | two of three treated patients experienced DLTs | 6000 | 4500 | fatigue, nausea, a high urinary concentration of beta 2 microglobulin, hypophosphatemia, hypokalemia, and metabolic acidosis | No DLTs occurred | one partial response | eight subjects | nine patients | greater than five months | did not meet its endpoints | did exhibit anticancer activity in some patients | 6000
2 | O=P(O)(NCCCl)NCCCl [IPM, isophosphoramide mustard] | linear pharmacokinetics |  |  |  |  |  |  |  |  |  |  |  |  |  | 
